Measurements taken from ChEMBL document CHEMBL1201862, “PubChem BioAssay data set” (2004).
Activity calls are given as the source filed them.

Experiments:
[1] = Trypanosoma cruzi growth suppression in host cells – NIH3T3 host cells, beta-gal luminescence, confirmation (AID 2044); format: functional, cell-based;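 also: intracellular parasites grown in NIH/3T3 mouse fibroblasts as host cells; luminescent beta-galactosidase reporter signal from transgenic T. cruzi replicating inside host cells; inhibitors lower the luminescence signal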
[2] = NIH3T3 cell viability loss – ATP luminescence, mouse fibroblasts, counter-screen, dose response (AID 2010); format: functional, cell-based;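 also: cells exposed to compound for about 90 hours before reading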
[3] = target: Sphingosine 1-phosphate receptor 4 (Homo sapiens, UniProt O95977); experiment: Fluorescence dose response cell-based high throughput screening assay for antagonists of the Sphingosine 1-Phosphate Receptor 4 (S1P4). [Related pubchem assays: 1524 (Confirmation in triplicates.), 1510 (Primary screen.)]; format: functional
[4] = target: Sphingosine 1-phosphate receptor 1 (Homo sapiens, UniProt P21453); format: functional;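 also: Tango beta-arrestin reporter U2OS cells stimulated with S1P near its EC80; inhibitor potency meaning antagonism of receptor activation by the natural agonist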
[5] = target: T1, Microphthalmia-associated transcription factor (Homo sapiens, UniProt O75030); experiment: reducers of TRPM1 reporter luminescence, concentration series – cell-based, SK-MEL-5, cherry-picked, set 3, MITF inhibitor project, dose response (AID 493073); format: functional;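 also: SK-MEL-5 melanoma cells with luciferase driven by the MITF target TRPM1 promoter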
T1 sequence (O75030 whole entry): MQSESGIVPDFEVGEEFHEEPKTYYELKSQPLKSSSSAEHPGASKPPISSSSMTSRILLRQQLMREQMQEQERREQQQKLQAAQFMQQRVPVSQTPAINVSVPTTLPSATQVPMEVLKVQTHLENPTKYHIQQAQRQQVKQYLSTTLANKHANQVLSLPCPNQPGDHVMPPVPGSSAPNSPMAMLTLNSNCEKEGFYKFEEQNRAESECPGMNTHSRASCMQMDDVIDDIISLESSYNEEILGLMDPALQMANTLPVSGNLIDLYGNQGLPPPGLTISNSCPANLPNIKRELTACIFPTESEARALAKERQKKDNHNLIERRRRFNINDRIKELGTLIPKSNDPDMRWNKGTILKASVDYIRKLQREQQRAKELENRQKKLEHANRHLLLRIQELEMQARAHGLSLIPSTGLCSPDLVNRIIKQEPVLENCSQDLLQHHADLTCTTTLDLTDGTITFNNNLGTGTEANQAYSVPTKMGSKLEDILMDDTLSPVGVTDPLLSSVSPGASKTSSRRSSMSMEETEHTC

[6] = target: Paired box protein Pax-8 (Homo sapiens, UniProt Q06710); experiment: PAX8 transcriptional activity inhibition in RMG-I – RMG-I cells, luciferase, cherry-pick, dose response (AID 687027); format: functional, cell-based;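 also: luciferase reporter driven by Pax8 target thyroperoxidase promoter measured by SteadyGlo luminescence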
[7] = reduced cellular PGC1a acetyl-lysine signal – cell-based, cherry-picked samples, dose response (AID 720514); format: functional;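 also: potency may reflect raised or lowered acetylation signal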
[8] = A549 cell cytotoxicity, dose response, cytotoxicity control, plate reader, cherry-pick, antagonist series (AID 743412); format: functional, cell-based
[9] = toxicity toward HepG2 liver cells – cell-based, plate reader, cherry-pick, antagonist series, cytotoxicity control, dose response (AID 743416); format: functional
[10] = blockers of bursicon-stimulated LGR2 cAMP reporter – cell-based, HEK293, CRE-luciferase reporter, cherry pick, set 2, dose response (AID 743343); format: functional;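 also: transfected cells were stimulated with diluted bursicon conditioned medium after compound addition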
[11] = blockade of melanocortin 4 receptor signaling – cell-based, plate reader, cherry pick, counter-screen for LGR2 antagonist project, dose response (AID 743444); format: functional;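 also: transfected HEK 293 cells stimulated with alpha-MSH peptide; potency of inhibitors of the alpha-MSH evoked signal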
[12] = viability loss in HEK293 cells – cell-based, plate reader, cherry-picked samples, cytotoxicity control, dose response (AID 743446); format: functional
[13] = target: NS3 (Hepatitis C virus, UniProt A3EZJ3); experiment: PubChem AID 2173; set-up: species or system Hepacivirus hominis
[14] = target: T2, Heat shock factor protein 1 (Mus musculus, UniProt P38532); experiment: enhancement of HSF1-driven luciferase signal – cell-based, NIH3T3, luminescence, dose retest, confirmation (AID 435004); format: functional;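 also: stress induced by proteasome inhibitor MG132 added 30 min after compound; luciferase reporter driven by HSF1 response element in NIH3T3 cells; actives raise luminescence as potentiators of the MG132 stress response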
T2 sequence (P38532 whole entry): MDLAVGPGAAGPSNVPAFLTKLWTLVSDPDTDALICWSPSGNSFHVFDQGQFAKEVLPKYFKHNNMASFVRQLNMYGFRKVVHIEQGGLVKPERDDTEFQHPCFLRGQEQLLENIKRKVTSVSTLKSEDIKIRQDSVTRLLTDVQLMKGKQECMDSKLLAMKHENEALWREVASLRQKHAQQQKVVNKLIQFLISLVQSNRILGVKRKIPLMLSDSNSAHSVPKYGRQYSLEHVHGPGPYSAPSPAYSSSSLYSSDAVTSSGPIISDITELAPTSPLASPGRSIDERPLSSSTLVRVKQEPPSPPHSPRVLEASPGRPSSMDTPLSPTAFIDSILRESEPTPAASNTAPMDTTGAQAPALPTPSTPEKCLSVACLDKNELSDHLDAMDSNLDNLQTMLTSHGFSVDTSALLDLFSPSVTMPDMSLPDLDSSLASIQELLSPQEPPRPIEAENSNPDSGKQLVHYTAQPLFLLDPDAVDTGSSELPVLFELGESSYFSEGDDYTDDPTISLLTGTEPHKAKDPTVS

[15] = target: T3, Corticotropin-releasing factor receptor 2/Corticotropin-releasing factor-binding protein (Homo sapiens, UniProt P24387+Q13324); experiment: activators of CRF receptor 2 with binding protein – uHTS hits, confirmation (AID 602473); format: functional; settings: read-out: EC50_Mean
T3 sequence (Q13324 whole entry): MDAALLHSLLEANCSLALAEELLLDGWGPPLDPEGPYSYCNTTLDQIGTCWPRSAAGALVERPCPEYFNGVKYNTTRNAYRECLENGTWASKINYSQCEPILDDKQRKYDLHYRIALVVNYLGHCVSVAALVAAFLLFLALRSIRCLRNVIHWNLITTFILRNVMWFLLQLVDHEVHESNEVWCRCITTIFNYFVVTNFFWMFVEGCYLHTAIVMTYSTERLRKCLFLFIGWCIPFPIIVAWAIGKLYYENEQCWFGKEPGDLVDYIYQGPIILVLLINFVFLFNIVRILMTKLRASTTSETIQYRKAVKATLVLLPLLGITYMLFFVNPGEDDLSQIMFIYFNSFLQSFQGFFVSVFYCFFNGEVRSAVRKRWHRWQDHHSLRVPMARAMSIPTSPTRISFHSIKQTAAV
T3 sequence (P24387 whole entry): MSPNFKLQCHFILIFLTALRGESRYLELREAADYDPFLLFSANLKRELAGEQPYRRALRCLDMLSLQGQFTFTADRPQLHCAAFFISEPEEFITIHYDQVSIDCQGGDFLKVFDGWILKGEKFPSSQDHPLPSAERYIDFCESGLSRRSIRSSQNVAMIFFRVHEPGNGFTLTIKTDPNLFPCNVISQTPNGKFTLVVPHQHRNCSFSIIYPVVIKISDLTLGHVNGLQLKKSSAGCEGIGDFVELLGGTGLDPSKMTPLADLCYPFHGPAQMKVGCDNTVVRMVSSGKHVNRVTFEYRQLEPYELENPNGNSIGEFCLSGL

[16] = target: T4, Beta-galactosidase (Escherichia coli, UniProt Q8VNN2); experiment: PubChem AID 485352; format: functional
[17] = target: T5, Type-1 angiotensin II receptor (Homo sapiens, UniProt P30556); experiment: antagonism of angiotensin II type 1 receptor – cell-based, uHTS hits, selectivity assay for APJ receptor antagonist project, dose response (AID 463214); format: functional;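 also: antagonist potency against angiotensin II stimulated AT1 response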
T5 sequence (P30556 whole entry): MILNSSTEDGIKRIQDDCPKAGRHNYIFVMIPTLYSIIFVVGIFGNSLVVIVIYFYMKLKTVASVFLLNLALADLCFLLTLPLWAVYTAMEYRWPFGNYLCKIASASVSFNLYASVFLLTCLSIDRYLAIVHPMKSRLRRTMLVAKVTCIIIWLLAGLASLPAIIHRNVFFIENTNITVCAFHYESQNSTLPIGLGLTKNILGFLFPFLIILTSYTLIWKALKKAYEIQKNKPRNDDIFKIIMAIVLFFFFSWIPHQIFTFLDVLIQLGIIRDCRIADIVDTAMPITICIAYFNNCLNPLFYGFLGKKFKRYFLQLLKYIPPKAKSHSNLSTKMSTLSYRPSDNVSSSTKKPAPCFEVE

[18] = target: T6, Kappa-type opioid receptor (Homo sapiens, UniProt P41145); format: functional
[19] = target: T4, Beta-galactosidase; format: functional
[20] = target: T6, Kappa-type opioid receptor; format: functional; remark: listed apart in the source
[21] = system: CHO; experiment: CHO cell viability loss, potency – luminescence, cytotoxicity control for TLR9-MyD88 binding inhibitor project, dose response (AID 588339); format: functional, cell-based, hamster; settings: Cricetulus griseus;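 also: CHO cells stably coexpressing TLR9 and MyD88 fusions from primary screen; compound exposure lasted 48 hours before viability readout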
[22] = target: T7, Replicative DNA helicase DnaB (Mycobacterium tuberculosis, UniProt P9WMR3); experiment: DnaB intein splicing inhibitors, dose response, biochemical, cell-free fluorescence (AID 449749); format: functional
T7 sequence (P9WMR3 whole entry): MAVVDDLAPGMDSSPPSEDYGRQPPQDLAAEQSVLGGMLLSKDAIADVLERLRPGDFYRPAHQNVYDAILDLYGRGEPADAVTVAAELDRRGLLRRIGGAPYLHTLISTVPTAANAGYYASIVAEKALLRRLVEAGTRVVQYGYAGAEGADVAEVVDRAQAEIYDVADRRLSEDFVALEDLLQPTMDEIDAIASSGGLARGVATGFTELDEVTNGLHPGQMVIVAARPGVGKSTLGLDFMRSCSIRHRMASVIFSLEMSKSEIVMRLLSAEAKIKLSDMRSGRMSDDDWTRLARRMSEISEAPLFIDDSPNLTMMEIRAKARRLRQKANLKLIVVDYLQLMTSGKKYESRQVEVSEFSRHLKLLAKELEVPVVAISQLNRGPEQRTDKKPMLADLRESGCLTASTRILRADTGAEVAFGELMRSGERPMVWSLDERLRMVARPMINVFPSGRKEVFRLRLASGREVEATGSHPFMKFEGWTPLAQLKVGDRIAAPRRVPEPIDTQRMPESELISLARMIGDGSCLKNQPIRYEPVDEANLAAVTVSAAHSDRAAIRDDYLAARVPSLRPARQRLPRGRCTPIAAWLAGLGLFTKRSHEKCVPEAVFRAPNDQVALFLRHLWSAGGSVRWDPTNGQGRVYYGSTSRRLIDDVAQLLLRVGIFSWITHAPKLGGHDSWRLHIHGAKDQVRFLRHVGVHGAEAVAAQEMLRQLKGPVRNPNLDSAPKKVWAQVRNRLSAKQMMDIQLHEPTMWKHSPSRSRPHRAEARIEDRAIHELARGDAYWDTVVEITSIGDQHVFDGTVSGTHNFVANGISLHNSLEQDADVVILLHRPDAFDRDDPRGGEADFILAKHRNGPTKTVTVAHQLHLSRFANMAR

[23] = target: T8, Protein RecA (Mycobacterium tuberculosis, UniProt P9WHJ3); experiment: Fluorescence Cell-Free Homogeneous Dose Retest to Identify Inhibitors of RecA-Intein Splicing Activity. [Related pubchem assays (depositor defined):AID2097, AID2223, AID489010, AID492950]; format: functional
T8 sequence (P9WHJ3 whole entry): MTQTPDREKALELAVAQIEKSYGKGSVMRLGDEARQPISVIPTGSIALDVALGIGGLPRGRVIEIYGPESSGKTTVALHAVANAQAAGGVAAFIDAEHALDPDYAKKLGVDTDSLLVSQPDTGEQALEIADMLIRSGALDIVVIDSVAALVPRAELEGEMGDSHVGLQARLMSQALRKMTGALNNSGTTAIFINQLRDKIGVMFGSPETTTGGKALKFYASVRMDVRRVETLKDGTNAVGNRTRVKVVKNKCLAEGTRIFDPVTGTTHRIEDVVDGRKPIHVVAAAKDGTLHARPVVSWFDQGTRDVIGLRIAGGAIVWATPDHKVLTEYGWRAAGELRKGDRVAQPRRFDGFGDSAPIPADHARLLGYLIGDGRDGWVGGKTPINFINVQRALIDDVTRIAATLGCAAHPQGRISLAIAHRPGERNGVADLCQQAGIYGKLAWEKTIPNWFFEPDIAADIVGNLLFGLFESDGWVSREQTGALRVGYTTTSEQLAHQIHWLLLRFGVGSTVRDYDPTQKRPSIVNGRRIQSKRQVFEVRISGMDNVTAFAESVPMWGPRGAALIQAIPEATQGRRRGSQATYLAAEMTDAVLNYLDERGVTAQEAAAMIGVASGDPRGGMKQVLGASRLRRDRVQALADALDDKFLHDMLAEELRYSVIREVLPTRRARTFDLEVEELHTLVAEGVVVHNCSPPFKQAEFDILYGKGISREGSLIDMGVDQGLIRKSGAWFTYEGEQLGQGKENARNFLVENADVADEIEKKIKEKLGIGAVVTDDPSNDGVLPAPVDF

[24] = target: Beta Lactamase (Pseudomonas aeruginosa, UniProt Q932Y6); experiment: BLA reporter interference, concentration series – BLA reporter cells, FRET fluorescence, artefact control for TLR9-MyD88 binding inhibitor project, dose response (AID 588341); format: cell-based;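 also: cell based assay in CHO-K1 cells stably expressing beta-lactamase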
[25] = system: INS1; experiment: INS-1E survival protection against cytokine death – cell-based, luminescence, retest, dose response (AID 449756); format: functional; settings: Rattus norvegicus;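 also: cell death triggered by IL-1 beta plus TNF-alpha plus IFN-gamma mixture; protective hits raise ATP signal compared with cytokine alone wells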
[26] = activation of miR-122 Renilla sensor silencing – cell-based, Huh7 psiCHECK-miR122, Renilla luciferase, cherry-picked, dose response (AID 651956); format: functional;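 also: huh7 hepatoma cells stably carrying a psiCHECK-2 miR-122 sensor plasmid; renilla luciferase signal reporting endogenous miR-122 activity after 48 h compound exposure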
[27] = general mammalian cell viability loss – inhibitor set, cherry-pick, set 2, cytotoxicity control for miR-122 modulator project, dose response (AID 720697); format: functional, cell-based
[28] = general mammalian cell viability loss – activator set, cherry-pick, cytotoxicity control for miR-122 modulator project, dose response (AID 720690); format: functional, cell-based;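 also: HEK293T human cells scored for general mammalian cytotoxicity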

T6 sequence (P41145 whole entry): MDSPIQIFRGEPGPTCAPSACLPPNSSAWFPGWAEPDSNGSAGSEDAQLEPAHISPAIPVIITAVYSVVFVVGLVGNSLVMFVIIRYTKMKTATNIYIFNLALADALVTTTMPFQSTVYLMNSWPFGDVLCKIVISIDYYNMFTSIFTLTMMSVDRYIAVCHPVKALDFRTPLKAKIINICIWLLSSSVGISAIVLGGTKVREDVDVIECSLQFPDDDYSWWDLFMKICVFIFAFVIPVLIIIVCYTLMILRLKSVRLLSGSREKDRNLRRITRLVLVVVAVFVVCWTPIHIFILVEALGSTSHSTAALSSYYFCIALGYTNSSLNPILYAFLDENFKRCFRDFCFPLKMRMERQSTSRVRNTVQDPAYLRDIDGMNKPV
Sequence of Sphingosine 1-phosphate receptor 4 (O95977 whole entry): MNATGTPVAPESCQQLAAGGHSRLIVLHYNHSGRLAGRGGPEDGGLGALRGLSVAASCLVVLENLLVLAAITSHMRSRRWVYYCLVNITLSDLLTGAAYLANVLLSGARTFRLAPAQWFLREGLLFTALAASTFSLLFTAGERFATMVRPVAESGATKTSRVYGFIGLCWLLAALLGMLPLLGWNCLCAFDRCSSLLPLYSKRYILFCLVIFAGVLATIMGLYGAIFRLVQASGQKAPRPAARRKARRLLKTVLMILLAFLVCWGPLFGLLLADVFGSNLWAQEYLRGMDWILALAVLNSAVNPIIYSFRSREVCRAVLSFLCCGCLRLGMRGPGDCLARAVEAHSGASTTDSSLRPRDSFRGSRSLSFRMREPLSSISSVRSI
T4 sequence (Q8VNN2 whole entry): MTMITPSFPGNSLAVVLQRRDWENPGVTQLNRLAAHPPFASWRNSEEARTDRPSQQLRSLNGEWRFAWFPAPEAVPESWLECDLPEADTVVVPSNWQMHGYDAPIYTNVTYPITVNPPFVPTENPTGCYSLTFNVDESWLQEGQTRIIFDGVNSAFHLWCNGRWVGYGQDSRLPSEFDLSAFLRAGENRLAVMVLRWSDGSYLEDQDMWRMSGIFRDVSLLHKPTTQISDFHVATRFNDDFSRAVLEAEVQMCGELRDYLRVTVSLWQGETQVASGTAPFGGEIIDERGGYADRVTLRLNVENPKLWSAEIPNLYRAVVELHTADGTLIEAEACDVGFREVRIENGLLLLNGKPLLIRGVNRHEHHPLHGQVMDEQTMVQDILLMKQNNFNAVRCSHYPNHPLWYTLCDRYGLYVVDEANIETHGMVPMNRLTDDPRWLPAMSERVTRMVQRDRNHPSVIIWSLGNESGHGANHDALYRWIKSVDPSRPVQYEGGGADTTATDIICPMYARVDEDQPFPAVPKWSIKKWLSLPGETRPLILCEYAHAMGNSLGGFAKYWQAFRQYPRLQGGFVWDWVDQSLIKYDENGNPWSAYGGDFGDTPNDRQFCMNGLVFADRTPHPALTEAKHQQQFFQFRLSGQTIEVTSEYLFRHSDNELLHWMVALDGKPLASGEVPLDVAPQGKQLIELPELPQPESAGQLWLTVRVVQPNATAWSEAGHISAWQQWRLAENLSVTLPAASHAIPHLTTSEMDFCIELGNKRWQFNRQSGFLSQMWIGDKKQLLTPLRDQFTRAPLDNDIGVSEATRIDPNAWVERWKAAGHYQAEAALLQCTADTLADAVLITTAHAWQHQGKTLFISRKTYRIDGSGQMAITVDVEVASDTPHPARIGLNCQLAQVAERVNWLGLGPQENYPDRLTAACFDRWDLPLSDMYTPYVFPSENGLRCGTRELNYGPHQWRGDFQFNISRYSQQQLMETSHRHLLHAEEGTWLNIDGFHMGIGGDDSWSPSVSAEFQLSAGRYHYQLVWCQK
Sequence of Sphingosine 1-phosphate receptor 1 (P21453 whole entry): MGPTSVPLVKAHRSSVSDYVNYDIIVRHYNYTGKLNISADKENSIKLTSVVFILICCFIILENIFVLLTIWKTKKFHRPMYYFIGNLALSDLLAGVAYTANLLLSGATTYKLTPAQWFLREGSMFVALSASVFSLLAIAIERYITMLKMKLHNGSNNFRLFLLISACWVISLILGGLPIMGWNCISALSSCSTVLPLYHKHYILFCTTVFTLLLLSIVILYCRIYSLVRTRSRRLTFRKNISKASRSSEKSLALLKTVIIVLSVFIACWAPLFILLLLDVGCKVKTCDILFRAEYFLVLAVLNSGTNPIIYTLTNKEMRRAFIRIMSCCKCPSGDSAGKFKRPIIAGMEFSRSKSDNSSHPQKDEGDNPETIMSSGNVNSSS
Sequence of Paired box protein Pax-8 (Q06710 whole entry): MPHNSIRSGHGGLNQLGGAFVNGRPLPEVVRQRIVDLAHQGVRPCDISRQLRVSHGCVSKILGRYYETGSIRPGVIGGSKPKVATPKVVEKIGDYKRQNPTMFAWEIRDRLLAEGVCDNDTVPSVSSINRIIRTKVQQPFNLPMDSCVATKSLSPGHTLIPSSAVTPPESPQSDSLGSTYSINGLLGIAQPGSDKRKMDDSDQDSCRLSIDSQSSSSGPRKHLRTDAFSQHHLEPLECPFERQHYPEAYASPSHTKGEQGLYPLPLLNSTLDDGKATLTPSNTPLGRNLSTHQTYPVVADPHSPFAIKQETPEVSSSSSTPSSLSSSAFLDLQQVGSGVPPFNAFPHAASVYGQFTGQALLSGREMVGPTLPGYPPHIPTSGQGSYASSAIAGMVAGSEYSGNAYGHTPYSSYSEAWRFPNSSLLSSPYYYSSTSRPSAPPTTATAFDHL
Sequence of Beta Lactamase (Q932Y6 whole entry): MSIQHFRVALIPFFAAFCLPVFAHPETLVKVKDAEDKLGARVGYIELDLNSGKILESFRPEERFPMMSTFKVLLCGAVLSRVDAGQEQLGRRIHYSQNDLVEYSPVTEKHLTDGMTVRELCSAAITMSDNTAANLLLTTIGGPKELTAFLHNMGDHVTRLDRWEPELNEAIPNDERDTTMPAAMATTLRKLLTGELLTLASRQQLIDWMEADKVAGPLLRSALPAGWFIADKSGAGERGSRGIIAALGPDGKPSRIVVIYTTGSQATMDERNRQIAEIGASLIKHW
Sequence of NS3 (A3EZJ3 whole entry): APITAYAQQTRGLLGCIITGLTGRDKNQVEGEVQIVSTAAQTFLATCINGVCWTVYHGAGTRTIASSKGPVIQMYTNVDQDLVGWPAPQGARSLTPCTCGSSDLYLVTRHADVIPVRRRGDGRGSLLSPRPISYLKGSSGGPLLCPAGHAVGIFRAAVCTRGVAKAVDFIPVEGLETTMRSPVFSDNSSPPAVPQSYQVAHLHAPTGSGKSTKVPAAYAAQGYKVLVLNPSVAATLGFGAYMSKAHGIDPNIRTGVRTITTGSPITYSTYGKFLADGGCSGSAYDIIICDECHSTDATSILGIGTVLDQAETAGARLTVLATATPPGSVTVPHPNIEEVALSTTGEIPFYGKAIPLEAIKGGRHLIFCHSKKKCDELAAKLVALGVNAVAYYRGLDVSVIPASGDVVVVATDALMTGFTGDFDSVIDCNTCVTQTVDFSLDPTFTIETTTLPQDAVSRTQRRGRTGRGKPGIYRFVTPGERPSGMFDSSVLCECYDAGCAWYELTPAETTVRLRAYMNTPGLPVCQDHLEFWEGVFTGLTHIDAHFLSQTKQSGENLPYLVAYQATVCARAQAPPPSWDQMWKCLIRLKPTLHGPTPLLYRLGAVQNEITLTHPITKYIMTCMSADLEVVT

O=C1CN(C(=O)Cn2ncc(Cl)c(Cl)c2=O)c2ccccc2N1
EC50 [1]: 2.11 µM (active) | EC50 [2]: 2.61 µM (active) | IC50 [3]: 3.18 µM (active) | IC50 [4]: 13.6 µM (not active) | AC50 [5]: 8.67 µM (active) | AC50 [6]: 2.19 µM (active) | AC50 [7]: 4.16 µM (active) | AC50 [8]: 11.8 µM (active) | AC50 [9]: 25.6 µM (active) | AC50 [10]: 18.7 µM (active) | AC50 [11]: 15.4 µM (active) | AC50 [12]: 8.59 µM (active)

Cc1cccc(N2C(=O)C(O)=C(C(=O)c3cccs3)C2c2ccc(C(C)C)cc2)n1 (stereo unspecified)
IC50 [13]: 5.88 µM (active) | EC50 [14]: > 260 µM (inactive) | EC50 [15]: 11.3 µM (active)

CCn1c(Cl)c(C=O)s/c1=N\S(=O)(=O)c1ccccc1
EC50 [16]: > 40 µM (inactive) | IC50 [17]: 2.24 µM (active) | IC50 [18]: 11.8 µM (active) | EC50 [19]: > 31.5 µM (inactive) | IC50 [3]: 1.48 µM (active) | IC50 [20]: 4.85 µM | IC50 [4]: 7.5 µM (active) | EC50 [14]: > 260 µM (inconclusive) | IC50 [21]: 0.952 µM (active) | AC50 [22]: 18.2 µM (active) | EC50 [23]: 1.3 µM (active) | IC50 [24]: 12.5 µM (inactive) | AC50 [25]: 5.12 µM (active) | AC50 [26]: 7.8 µM (active) | AC50 [27]: 1.84 µM (active) | AC50 [28]: 3.2 µM (active)
